Laboratory results: PubChem BioAssay AID2060493 (Molecular Pharmacology Branch, DTP, NCI, 2025)
Several values for one entry are separate records, joined by “and”; a condition that tells them apart may be missing. Equal entries are not always repeated.

Tested on: 616215-338-R-J1-PDC tumor spheroids, viability
Assay: Anticancer human tumor 616215-338-R-J1-PDC patient-derived colon adenocarcinoma cell line growth inhibition [GQUAD]
Conditions: spheroids with HUVEC and MSC; for viability, T/C: stronger effect = lower value
Source text: DNA G-quadruplex Stabilizer Agents in Combinations in Complex Spheroids
A high-throughput screen of multi-cell type tumor spheroids was designed to identify active combinations of DNA G-quadruplex stabilizer agents and targeted small molecules. Complex spheroids include a stromal component modeled by human endothelial cells (HUVEC) and fibroblasts modeled by human mesenchymal stem cells (MSCs). The concentration ranges selected for each drug and investigational agent were based upon clinically achievable concentrations if the clinical Cmax of the agent was known.
Compounds. The drugs and investigational agents: pidnarulex (CX-5461; NSC782164), APTO-253 (NSC789042), BRACO-19 (NSC847499), peposertib (NSC802822), ceralasertib (NSC780249), elimusertib (NSC800525), camonsertib (NSC841442), AZD-1390 (NSC803789), olaparib (NSC753686), talazoparib (NSC767125), ART-558 (NSC835418), sotorasib (NSC818433), MRTX-1133 (NSC836407), SN-38 (NSC673596), topotecan (NSC609699), etoposide (NSC141540), doxorubicin (NSC123127), gemcitabine (NSC613327), 5-fluorouracil (NSC19893), paclitaxel (NSC125973), vemurafenib (NSC761431), panobinostat (NSC761190), R-306465 (JNJ-16241199; NSC773264), adavosertib (NSC754352), TP-3654 (NSC805149), carboplatin (NSC241240), KSQ-4279 (NSC840948), and staurosporine (NSC755774) were obtained from the National Cancer Institute (NCI) Developmental Therapeutics Program Chemical Repository (34). The FDA-approved anticancer drug set is available from the NCI Developmental Therapeutics Program. […] The stock solutions were prepared in dimethyl sulfoxide (DMSO, Sigma-Aldrich, St. Louis, MO, cat. D2650) at 800-fold the tested concentration and stored at -70 degrees C prior to their use. All drugs and investigational agents were tested over a range starting from a high concentration at or near the clinical Cmax and decreasing in half-log increments. If the clinical Cmax for an agent had not been determined, the highest concentration tested was 10 microM.
2.3 Cell Culture. All cells were maintained in an incubator at 37 degrees C and 5% CO2 with 95% humidity. The PDC lines were cultured according to standard operating procedures established by the NCI PDMR. All PDCs were thawed and cultured in Matrigel-coated flasks prepared with a working solution of 1X Ham's F-12 nutrient mix, without supplementation (Invitrogen, cat. 11765054), 100 U/mL penicillin-streptomycin (Invitrogen, cat. 15140122), and 2.5% Matrigel (Corning Inc., cat. 354248) for the first three passages. The 857933-349-R-J2-PDC line was cultured in 6C/Colon 1B media, which includes advanced DMEM/F-12 (Thermo Fisher Scientific, cat. 12634028), 10 mM HEPES (Thermo Fisher Scientific, cat. 15630080), 1X GlutaMAX supplement (Thermo Fisher Scientific, cat. 35050061), 0.1 mg/mL primocin (InvivoGen, cat. ant-pm-2), 10% defined fetal bovine serum, heat inactivated (HyClone Laboratories Inc., cat. SH30070.03HI), 50% L-WRN conditioned media (ATCC, cat. CRL-3276), 1.25 mM N-Acetyl-L-cysteine (Sigma-Aldrich, cat. A9165), 10 mM nicotinamide (Sigma-Aldrich, cat. N0636), 1X B-27 supplement (Thermo Fisher Scientific, cat. 17504044), 1X N-2 supplement (Thermo Fisher Scientific, cat. 17502048), 10 microM Y-27632 dihydrochloride (Tocris Bioscience, cat. 1254), and 50 ng/mL human EGF recombinant protein (Thermo Fisher Scientific, cat. PHG0311). The 485176-168-R4-J1-PDC line was cultured in Panc media, which includes all 6C/Colon 1B media components plus 100 ng/mL human FGF-10 (Thermo Fisher Scientific, cat. 100-26), 500 nM SB-431542 (Selleckchem, cat. S1067), and gastrin (Tocris, cat. 3006).
[…]

[1] = curve of first compound, second compound 0.0316 µM
[2] = curve of first compound, second compound 0.1 µM
[3] = curve of first compound, second compound 0.316 µM
[4] = curve of first compound, second compound 1 µM
[5] = curve of first compound, second compound 3.16 µM
[6] = curve of first compound, second compound 10 µM
[7] = second compound 0.0316 µM, first compound 0.0316 µM
[8] = second compound 0.0316 µM, first compound 0.1 µM
[9] = second compound 0.0316 µM, first compound 0.316 µM
[10] = second compound 0.0316 µM, first compound 1 µM
[11] = second compound 0.0316 µM, first compound 3.16 µM
[12] = second compound 0.0316 µM, first compound 10 µM
[13] = second compound 0.1 µM, first compound 0.0316 µM
[14] = second compound 0.1 µM, first compound 0.1 µM
[15] = second compound 0.1 µM, first compound 0.316 µM
[16] = second compound 0.1 µM, first compound 1 µM
[17] = second compound 0.1 µM, first compound 3.16 µM
[18] = second compound 0.1 µM, first compound 10 µM
[19] = second compound 0.316 µM, first compound 0.0316 µM
[20] = second compound 0.316 µM, first compound 0.1 µM
[21] = second compound 0.316 µM, first compound 0.316 µM
[22] = second compound 0.316 µM, first compound 1 µM
[23] = second compound 0.316 µM, first compound 3.16 µM
[24] = second compound 0.316 µM, first compound 10 µM
[25] = second compound 1 µM, first compound 0.0316 µM
[26] = second compound 1 µM, first compound 0.1 µM
[27] = second compound 1 µM, first compound 0.316 µM
[28] = second compound 1 µM, first compound 1 µM
[29] = second compound 1 µM, first compound 3.16 µM
[30] = second compound 1 µM, first compound 10 µM
[31] = second compound 3.16 µM, first compound 0.0316 µM
[32] = second compound 3.16 µM, first compound 0.1 µM
[33] = second compound 3.16 µM, first compound 0.316 µM
[34] = second compound 3.16 µM, first compound 1 µM
[35] = second compound 3.16 µM, first compound 3.16 µM
[36] = second compound 3.16 µM, first compound 10 µM
[37] = second compound 10 µM, first compound 0.0316 µM
[38] = second compound 10 µM, first compound 0.1 µM
[39] = second compound 10 µM, first compound 0.316 µM
[40] = second compound 10 µM, first compound 1 µM
[41] = second compound 10 µM, first compound 3.16 µM
[42] = second compound 10 µM, first compound 10 µM
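Also: spheroids exposed to agents for 7 days before readout.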
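For viability, T/C in this document: percent viability relative to DMSO vehicle control wells taken as 100%.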

For `CCCS(=O)(=O)Nc1ccc(F)c(C(=O)c2c[nH]c3ncc(-c4ccc(Cl)cc4)cc23)c1F` + Cc1cnc(CNC(=O)c2c(=O)c3ccc(N4CCCN(C)CC4)nc3n3c2sc2ccccc23)cn1, the IC50 [1] was 5390 nM, the IC50 [2] was 2100 nM and the IC50 [3] was under 31.6 nM. The IC50 [4] was under 31.6 nM, the IC50 [5] was under 31.6 nM and the IC50 [6] was under 31.6 nM. The viability, T/C [7] was 107%, the viability, T/C [8] was 110% and the viability, T/C [9] was 113%. The viability, T/C [10] was 104%, the viability, T/C [11] was 90% and the viability, T/C [12] was 3.94%. It also gave a viability, T/C [13] of 58.2%, a viability, T/C [14] of 59% and a viability, T/C [15] of 56%. It also gave a viability, T/C [16] of 48.5%, a viability, T/C [17] of 49.9% and a viability, T/C [18] of 10.5%. The viability, T/C [19] was 34.4%, the viability, T/C [20] was 43.5% and the viability, T/C [21] was 38.5%. For the same compound, the viability, T/C [22] was 38.4%, the viability, T/C [23] was 33.1% and the viability, T/C [24] was 8.31%. The viability, T/C [25] was 31%, the viability, T/C [26] was 34.2% and the viability, T/C [27] was 36.7%. The viability, T/C [28] was 35.9%, the viability, T/C [29] was 37.1% and the viability, T/C [30] was 4.42%. For the same compound, the viability, T/C [31] was 31.1%, the viability, T/C [32] was 18.5% and the viability, T/C [33] was 32.4%. The viability, T/C [34] was 23%, the viability, T/C [35] was 27.7% and the viability, T/C [36] was 0.11%. It also gave a viability, T/C [37] of 15.7%, a viability, T/C [38] of 21.4% and a viability, T/C [39] of 27.6%. For the same compound, the viability, T/C [40] was 19.2%, the viability, T/C [41] was 23.9% and the viability, T/C [42] was 0.17%.

Compound `COc1cccc2c1C(=O)c1c(O)c3c(c(O)c1C2=O)CC(O)(C(=O)CO)CC3OC1CC(N)C(O)C(C)O1` (stereo not drawn) + Cc1cnc(CNC(=O)c2c(=O)c3ccc(N4CCCN(C)CC4)nc3n3c2sc2ccccc23)cn1 has an IC50 [1] of 381 nM, an IC50 [2] of 410 nM and an IC50 [3] of under 31.6 nM. For the same compound, the IC50 [4] was under 31.6 nM, the IC50 [5] was under 31.6 nM and the IC50 [6] was under 31.6 nM. For the same compound, the viability, T/C [7] was 102%, the viability, T/C [8] was 54.7% and the viability, T/C [9] was 50.2%. It also gave a viability, T/C [10] of 40.5%, a viability, T/C [11] of 20.2% and a viability, T/C [12] of 1.32%. The viability, T/C [13] was 56%, the viability, T/C [14] was 67.4% and the viability, T/C [15] was 49.7%. The viability, T/C [16] was 39.2%, the viability, T/C [17] was 19.4% and the viability, T/C [18] was 1.25%. For the same compound, the viability, T/C [19] was 38.2%, the viability, T/C [20] was 39% and the viability, T/C [21] was 32%. For the same compound, the viability, T/C [22] was 27.7%, the viability, T/C [23] was 19.9% and the viability, T/C [24] was 0.1%. It also gave a viability, T/C [25] of 28.1%, a viability, T/C [26] of 37.7% and a viability, T/C [27] of 34.5%. For the same compound, the viability, T/C [28] was 26%, the viability, T/C [29] was 12.6% and the viability, T/C [30] was 0.1%. For the same compound, the viability, T/C [31] was 29.8%, the viability, T/C [32] was 28.1% and the viability, T/C [33] was 35.1%. For the same compound, the viability, T/C [34] was 16.4%, the viability, T/C [35] was 15.3% and the viability, T/C [36] was 0.16%. For the same compound, the viability, T/C [37] was 28%, the viability, T/C [38] was 20.8% and the viability, T/C [39] was 28.3%. The viability, T/C [40] was 23.1%, the viability, T/C [41] was 3.24% and the viability, T/C [42] was 0.25%.

For `CC1COCCN1c1cc(C2(O)CC3CCC(C2)O3)c2cnn(-c3ccn[nH]3)c2n1` (stereo not drawn), the viability, T/C (compound 0.0316 µM) was 95.2% and 102% and 99.8%, the viability, T/C (compound 0.1 µM) was 60.7% and 60.2% and 55.6% and the viability, T/C (compound 0.316 µM) was 45.5% and 31.8% and 40.3%. The viability, T/C (compound 1 µM) was 34.9% and 39.4% and 31.6%, the viability, T/C (compound 3.16 µM) was 21.1% and 23.5% and 21.3% and the viability, T/C (compound 10 µM) was 23.2% and 16.9% and 12.9%. For the same compound, the IC50 (curve of compound) was 217 nM and 171 nM and 175 nM.

`CC1COCCN1c1cc(C2(O)CC3CCC(C2)O3)c2cnn(-c3ccn[nH]3)c2n1` (stereo not drawn) + CN(C)c1ccc(Nc2c3ccc(NC(=O)CCN4CCCC4)cc3nc3cc(NC(=O)CCN4CCCC4)ccc23)cc1 showed an IC50 [1] of 184 nM, an IC50 [2] of 213 nM and an IC50 [3] of 196 nM. It also gave an IC50 [4] of 201 nM, an IC50 [5] of 225 nM and an IC50 [6] of 139 nM. It also gave a viability, T/C [7] of 98.6%, a viability, T/C [8] of 63.5% and a viability, T/C [9] of 38.5%. It also gave a viability, T/C [10] of 24%, a viability, T/C [11] of 15.5% and a viability, T/C [12] of 18.4%. For the same compound, the viability, T/C [13] was 102%, the viability, T/C [14] was 72.7% and the viability, T/C [15] was 34.7%. The viability, T/C [16] was 30.3%, the viability, T/C [17] was 20.8% and the viability, T/C [18] was 15.2%. The viability, T/C [19] was 94.3%, the viability, T/C [20] was 64.7% and the viability, T/C [21] was 36.4%. It also gave a viability, T/C [22] of 31.9%, a viability, T/C [23] of 17.3% and a viability, T/C [24] of 15.3%. It also gave a viability, T/C [25] of 95.4%, a viability, T/C [26] of 72.5% and a viability, T/C [27] of 34.3%. The viability, T/C [28] was 24.1%, the viability, T/C [29] was 24.4% and the viability, T/C [30] was 11.7%. The viability, T/C [31] was 99.5%, the viability, T/C [32] was 67.2% and the viability, T/C [33] was 41.3%. For the same compound, the viability, T/C [34] was 28.4%, the viability, T/C [35] was 25.2% and the viability, T/C [36] was 13.2%. For the same compound, the viability, T/C [37] was 84.7%, the viability, T/C [38] was 55.2% and the viability, T/C [39] was 35.2%. The viability, T/C [40] was 27.1%, the viability, T/C [41] was 24.2% and the viability, T/C [42] was 13.4%.
